Series [1] relates to SARS-CoV-2 spike protein pseudovirus. Description: microbe, parasite or virus in culture. The series is classed as cell-based. The settings on record: for activity at 10 µM: 293T/ACE2, 48 h, read-out: % Infectivity of SARS-2-Spike pv.
Another series concerns VSV-G pseudovirus. As to the kind of experiment: microbe, parasite or virus in culture. The series is classed as cell-based, vesicular stomatitis virus. To be noted: for activity at 10 µM: Pseudovirus, 293T/ACE2, read-out: % Infectivity of VSV-G pv.
For a further series, the system named is SARS-CoV-1-S pseudovirus. In kind it is cell-based.
In a further series the test system is MERS-CoV-S pseudovirus. In kind it is cell-based.
Series [2] deals with SARS-CoV-2 spike protein pseudovirus. In kind it is cell-based.
The test system is the same in series [3]. The series is classed as cell-based. The source holds these as a separate data set.
Series [4] shares this test system. To be noted: Caco-2.
The conditions of series [5]: predictions for the uncharged form; ref https://go.drugbank.com; cited from earlier work.
The conditions of series [6]: values for the salts; ref chemical supplier datasheets; cited from earlier work.
The next series is described as follows: in vitro. To be noted: human.
The test system of series [7] is SARS-CoV-2 spike protein pseudovirus. In kind it is cell-based. The source holds these as a separate data set.
For series [8] the test system is unchanged. In kind it is cell-based. This is another data set of the same source.
Series [9] has the same test system. The series is classed as cell-based. The source holds these as a separate data set.
For series [10] the following is noted: within current drug treatment regimes; ref PubChem database; read-out: peak serum concentration (Cmax); cited from earlier work.
The mark [11] stands for this setting: 293T/ACE2, read-out: IC50 of SARS-CoV-2-S pseudovirus infectivity.

Entries after “also recorded” stand apart in the source; their conditions may differ. Counter-ions that a name gives are not always drawn. Like-named read-outs stand apart in the source and are kept apart here.

For `CN(C)C(=O)COC(=O)Cc1ccc(OC(=O)c2ccc(NC(=N)N)cc2)cc1` [camostat mesylate], the activity at 10 µM in series [1] amounted to 120%. In the series on VSV-G pseudovirus, the “% Infectivity of VSV-G pv” value is “did not inhibit”. Moreover, the “inhibition of SARS-CoV-1-S pseudovirus infection” value in the series on SARS-CoV-1-S pseudovirus is on record as “did not inhibit”. In addition, the “inhibition of MERS-CoV-S pseudovirus infection” value in the series on MERS-CoV-S pseudovirus is on record as “did not inhibit”. Also, in series [2], the “% infectivity of SARS-CoV-2 pseudovirus in Calu3 cells” value (“% infectivity … in Calu3 cells” for short) is “inhibited”. In addition, in [3], the “inhibition of SARS-CoV-2 pseudovirus infection of A549-ACE2 cells” value (“inhibition … of A549-ACE2 cells” below) is “failed to inhibit”. Also, in series [4], the “inhibition of SARS-CoV-2 pseudovirus infection of Caco2 cells” value is reported as “inhibited”.

A word on the IC50: it is the concentration that inhibits the measured activity by half. In general, viability refers to a read-out of living cells in per cent, often relative to untreated cells. On to `CN(C)CCC=C1c2ccccc2CCc2ccccc21` [amitriptyline HCl], for which the activity at 10 µM in series [1] is 9%; in the series on VSV-G pseudovirus, 80%. For the same compound, the IC50 in series [1] (setting [11]) stood at 4.98 µM. Also, in series [5], the water solubility a is 14 µM. Also, the water solubility b in [6] is 99000 µM. Also, in the series “in vitro” (% Viability of SARS-2-Spike pv), the viability is 112%.

Take `CC(CN(C)C)CN1c2ccccc2CCc2ccccc21` (centres unmarked) [trimipramine maleate]: the values for the activity at 10 µM (in series [1]; in the series on VSV-G pseudovirus) were 14% and 95%, respectively. For the same compound, the IC50 in series [1] (setting [11]) worked out at 5.35 µM. Further, in series [2], the “% infectivity … in Calu3 cells” value is listed as 8%. In addition, the water solubility a in series [5] is 88 µM. In addition, in [6], the water solubility b was 5000 µM. For the same compound, the viability in “in vitro” (% Viability of SARS-2-Spike pv) turned out to be 92%.

On to `COc1cc2c(Nc3ccc(Br)cc3F)ncnc2cc1OCC1CCN(C)CC1` [vandetanib], for which the activity at 10 µM in series [1] was 1%; in the series with VSV-G pseudovirus, 125%. For the same compound, the half-maximal inhibitory concentration (IC50) in [1] (setting [11]) was found to be 6.45 µM. For the same compound, the “toxicity in Calu3 cells (word printed in Figure 7)” value (“toxicity in Calu3 cells” below) in the series on Calu3 cells is listed as “toxic”. The viability in “in vitro” came out at 89%.

Turning to `CN1CCC(=C2c3ccccc3CCc3sccc32)CC1` [pizotifen malate], the activity at 10 µM in series [1] turned out to be 7%; with VSV-G pseudovirus it was 77%. For the same compound, the IC50 in series [1] (setting [11]) was found to be 3.46 µM. For the same compound, in series [2], the “% infectivity … in Calu3 cells” value worked out at 13%. Further, the water solubility a in [5] is 16 µM. Moreover, the viability in the series “in vitro” (% Viability of SARS-2-Spike pv) worked out at 106%.

`CN(C)CCCN1c2ccccc2Sc2ccc(Cl)cc21` [chlorpromazine HCl]: the activity at 10 µM in series [1] stood at 6%; with VSV-G pseudovirus, 58%. The IC50 in [1] (setting [11]) was 3.79 µM. For the same compound, the “% infectivity, drug added at 1 hpi (post-entry)” value (“% infectivity, drug added” for short) in series [7] worked out at 35%. Besides, the water solubility a in series [5] was 12 µM. The water solubility b in [6] was 141000 µM. Moreover, in “in vitro” (% Viability of SARS-2-Spike pv), the viability was 65%.

`CCN(CCO)CCCC(C)Nc1ccnc2cc(Cl)ccc12` (centres unmarked) [hydroxychloroquine sulfate]: the results for the activity at 10 µM (in series [1]; with VSV-G pseudovirus) were 2% and 103%, respectively. Further, the IC50 in series [1] (setting [11]) worked out at 0.66 µM; in [1] (read-out: IC50 of SARS-CoV-2-S pseudovirus infectivity), 0.7 µM. Moreover, the “inhibition of SARS-CoV-1-S pseudovirus infection” value with SARS-CoV-1-S pseudovirus is “inhibited”. In the series on MERS-CoV-S pseudovirus, the “inhibition of MERS-CoV-S pseudovirus infection” value is listed as “inhibited”. For the same compound, the “% infectivity in attachment assay” value in [8] was “did not inhibit attachment”. Besides, in series [3], the “inhibition … of A549-ACE2 cells” value was “failed to inhibit”. For the same compound, in series [5], the water solubility a is 60 µM. Moreover, the water solubility b in [6] was 200000 µM. Also, the viability in “in vitro” (% Viability of SARS-2-Spike pv) was 90%.

In the case of `CSc1ccc2c(c1)N(CCC1CCCCN1C)c1ccccc1S2` (centres unmarked) [thioridazine HCl], the activity at 10 µM came to 6% in [1] and 69% with VSV-G pseudovirus. Further, in the series with SARS-CoV-1-S pseudovirus, the “inhibition of SARS-CoV-1-S pseudovirus infection” value is “significant inhibition”. Besides, the “inhibition of MERS-CoV-S pseudovirus infection” value in the series with MERS-CoV-S pseudovirus was “non-significant inhibition”. The “% infectivity in attachment assay” value in series [8] was determined as 28%. For the same compound, the “% infectivity … in Calu3 cells” value in [2] was 22%. In series [5], the water solubility a is 2.1 µM. The water solubility b in [6] is 122000 µM. Besides, in the series “in vitro” (% Viability of SARS-2-Spike pv), the viability came out at 71%.

For `CCOC(=O)C1=C(COCCN)NC(C)=C(C(=O)OC)C1c1ccccc1Cl` (centres unmarked) [amlodipine], the activity at 10 µM in series [1] is 12%. Further, in [1] (setting [11]), the IC50 is 5.6 µM. In addition, the “% Infectivity of VSV-G pv” value in the series on VSV-G pseudovirus is listed as 78%. Further, the “inhibition of SARS-CoV-1-S pseudovirus infection” value with SARS-CoV-1-S pseudovirus is listed as “significant inhibition”. In addition, the “inhibition of MERS-CoV-S pseudovirus infection” value in the series with MERS-CoV-S pseudovirus is recorded as “non-significant inhibition”. In addition, the “toxicity in Calu3 cells” value with Calu3 cells is reported as “toxic”. For the same compound, the viability in the series “in vitro” (% Viability of SARS-2-Spike pv) was found to be 115%.

As to `CC(C)OC(=O)OCOP(=O)(CO[C@H](C)Cn1cnc2c(N)ncnc21)OCOC(=O)OC(C)C.O=C(O)/C=C/C(=O)O` [tenofovir, tenofovir disoproxil fumarate], the “% Infectivity of SARS-2-Spike pv” value in [1] was “completely inhibited”. In the series on VSV-G pseudovirus, the “% Infectivity of VSV-G pv” value is recorded as “potently inhibited; also recorded: completely inhibited”. Further, the “inhibition of SARS-CoV-1-S pseudovirus infection” value in the series with SARS-CoV-1-S pseudovirus was “completely inhibited”. Besides, the “inhibition of MERS-CoV-S pseudovirus infection” value with MERS-CoV-S pseudovirus is listed as “completely inhibited”. Also, the “% infectivity, drug added” value in [7] is recorded as “complete inhibition”. Also, in series [2], the “% infectivity … in Calu3 cells” value is given as “complete inhibition”. Further, the “inhibition of SARS-CoV-2 pseudovirus infection of Vero cells” value in series [9] is reported as “complete inhibition”. The “inhibition … of A549-ACE2 cells” value in [3] is “complete inhibition”. Also, in [4], the “inhibition of SARS-CoV-2 pseudovirus infection of Caco2 cells” value was “complete inhibition”.

On to `CN(C)CC/C=C1/c2ccccc2Sc2ccc(Cl)cc21` [chlorprothixene], for which the activity at 10 µM in series [1] is 5%; with VSV-G pseudovirus, 48%. In addition, in [1] (setting [11]), the IC50 stood at 1.94 µM. Besides, the “% infectivity, drug added” value in series [7] stood at 45%. Besides, the “% infectivity in attachment assay” value in series [8] is “did not inhibit virus attachment”. Moreover, in series [2], the “% infectivity … in Calu3 cells” value was found to be 44%. Besides, in series [10], the Cmax was 1400 nM. For the same compound, in the series “in vitro” (% Viability of SARS-2-Spike pv), the viability amounted to 97%.

As for `CCN(CC)CCCC(C)Nc1ccnc2cc(Cl)ccc12` (centres unmarked) [chloroquine diphosphate], the activity at 10 µM was 1% in series [1] and 83% in the series with VSV-G pseudovirus. The IC50 in series [1] (setting [11]) was found to be 0.32 µM. For the same compound, the “inhibition of SARS-CoV-1-S pseudovirus infection” value with SARS-CoV-1-S pseudovirus is recorded as “inhibited”. The “inhibition of MERS-CoV-S pseudovirus infection” value in the series with MERS-CoV-S pseudovirus is reported as “inhibited”. Further, in [3], the “inhibition … of A549-ACE2 cells” value is on record as “failed to inhibit”. In addition, in “in vitro”, the viability is 123%.

On to `CN[C@H]1CC[C@@H](c2ccc(Cl)c(Cl)c2)c2ccccc21` [sertraline HCl], for which the activity at 10 µM in [1] amounted to 8%; in the series on VSV-G pseudovirus it was 71%. For the same compound, the “toxicity in Calu3 cells” value in the series on Calu3 cells is “toxic”. Besides, the viability in the series “in vitro” (% Viability of SARS-2-Spike pv) amounted to 95%.

With `CNCCCC12CCC(c3ccccc31)c1ccccc12` [maprotiline HCl], the activity at 10 µM was 9% in series [1] and 89% with VSV-G pseudovirus. The water solubility a in [5] was 150 µM. For the same compound, the water solubility b in series [6] was 159000 µM. Also, the viability in the series “in vitro” (% Viability of SARS-2-Spike pv) is 99%.

(Values after paper PMC8619434 (Viruses, 2021).)
